Source: patent US20240417405A1, “Substituted Spiro Derivatives” (Janssen Pharmaceutica NV, priority 2021, published 2024)

Key:
[1] = molecular target: T1, menin/MLL (terbium chelate-labeled menin, FITC-MBM1 peptide) (Homo sapiens, UniProt O00255, T541A); assay: Menin/MLL homogenous time-resolved fluorescence (HTRF) assay; assay type: binding; settings: 30 min incubation
T1 construct: Menin (a.a 1-610-6xhis tag)
T1 sequence (O00255 with tags, fused parts or gaps T541A): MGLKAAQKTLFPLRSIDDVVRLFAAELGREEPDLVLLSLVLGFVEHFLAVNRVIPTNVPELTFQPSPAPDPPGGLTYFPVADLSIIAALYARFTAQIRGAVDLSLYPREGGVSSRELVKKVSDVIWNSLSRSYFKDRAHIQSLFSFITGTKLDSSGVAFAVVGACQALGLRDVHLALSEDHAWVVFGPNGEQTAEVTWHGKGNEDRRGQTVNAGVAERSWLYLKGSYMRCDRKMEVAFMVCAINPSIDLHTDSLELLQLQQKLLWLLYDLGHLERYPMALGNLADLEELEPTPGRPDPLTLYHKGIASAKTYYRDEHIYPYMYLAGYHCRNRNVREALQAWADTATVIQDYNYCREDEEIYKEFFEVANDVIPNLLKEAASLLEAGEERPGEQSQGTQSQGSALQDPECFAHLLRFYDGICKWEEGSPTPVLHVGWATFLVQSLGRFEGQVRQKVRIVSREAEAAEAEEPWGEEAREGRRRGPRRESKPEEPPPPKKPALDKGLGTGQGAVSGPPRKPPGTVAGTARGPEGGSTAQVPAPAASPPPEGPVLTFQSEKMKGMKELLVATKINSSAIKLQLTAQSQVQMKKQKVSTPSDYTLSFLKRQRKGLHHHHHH
Outline: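 Terbium-labeled menin (aa 1-610, His-tagged; 200 pM) preincubated 30 min with compound, then 75 nM FITC-MBM1 peptide added for 15 min at ambient temperature in pH 7.5 Tris buffer, 0.5% DMSO. HTRF ratio 520/490 nm converted to % inhibition. IC50 came from an 11-point four-fold titration from 10 μM, floor 0.1 nM.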

MOLM14 cells = assay: Proliferation assay, spheroid-like growth, MOLM14 (MLL-AF9 rearranged); assay type: cell-based, human; settings: Homo sapiens, MOLM-14, 192 h, 8 days, confluence as measure of spheroid size, read-out: spheroid assay_OneTime MOLM14 IC50
Outline: (§1)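 Cells seeded in ultra-low attachment round-bottom wells (200 MOLM14 or 300 KO-52 per well) with compound at several concentrations, DMSO 0.3%, grown 8 days at 37° C, 5% CO2. Spheroid size taken as confluence from day-8 live-cell images; IC50 from variable-slope fit, DMSO as 0% and high-dose reference compound as 100% effect.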

KO-52 cells = assay: Proliferation assay, spheroid-like growth, KO-52 (MLL wildtype control cell line); assay type: cell-based, human; settings: Homo sapiens, 192 h, KO-52 control cells, 8 days, confluence as measure of spheroid size; read-out: spheroid assay_OneTime KO-52 IC50
Outline: as §1

IC50 [1]	IC50 (MOLM14 cells)	SMILES	IC50 (KO-52 cells)
0.3 nM	7 nM	CC(C)[C@H]([C@H]1C[C@@H](NC(=O)C2CC2)C1)N1CC2(CCN(c3ncnnc3Oc3ccc(F)cc3-c3cncnc3C3CC3)C2)C1 (single isomer, unassigned) [Compound 303]	4530 nM
0.2 nM	< 2 nM	CC(C)[C@H]([C@H]1C[C@@H](N2C[C@H](O)C3(CC3)C2)C1)N1CC2(CCN(c3ncnnc3Oc3ccc(F)cc3-c3cncnc3C3CC3)C2)C1 (single isomer, unassigned) [Compound 45]	6330 nM
0.2 nM	5 nM	CC(C)C([C@H]1C[C@@H](N2CCC3(CCO3)CC2)C1)N1CC2(CCN(c3ncnnc3Oc3ccc(F)cc3-c3cncnc3C3CC3)C2)C1 (stereo partly drawn) [Compound 327]	> 15000 nM
108 nM	> 940 nM	CC(=O)N[C@H]1C[C@@H]([C@H](C(C)C)N2CC3(CCN(c4ncnnc4Oc4ccc(F)cc4-c4nccnc4C4CC4)C3)C2)C1 (single isomer, unassigned) [Compound 178]	> 15000 nM
0.1 nM	20 nM	CC(C)[C@@H]([C@H]1C[C@H](N2C[C@H]3COC[C@H]3C2)C1)N1CC2(CCN(c3ncnnc3Oc3ccc(F)cc3-c3cnncc3C3CC3)C2)C1 (single isomer, unassigned) [Compound 279]	5990 nM
0.1 nM	6 nM	COC1CN([C@H]2C[C@@H]([C@H](C(C)C)N3CC4(CCN(c5ncnnc5Oc5ccc(F)cc5-c5nnccc5C5CC5)C4)C3)C2)C1 (single isomer, unassigned) [Compound 260]	3250 nM
0.3 nM	8 nM	CC(C)C([C@H]1C[C@@H](N2CCCCC2)C1)N1CC2(CCN(c3ncnnc3Oc3ccc(F)cc3-c3cncnc3C3CC3)C2)C1 (stereo partly drawn) [Compound 135]	1000 nM
0.3 nM	62 nM	CC(=O)N[C@H]1C[C@@H]([C@@H](C(C)C)N2CC3(CCN(c4ncnnc4Oc4ccc(F)cc4-c4ncncc4C4CC4)C3)C2)C1 (single isomer, unassigned) [Compound 180]	10100 nM
0.1 nM	33 nM	CC(C)[C@@H]([C@H]1C[C@@H](N2CCC(C(=O)N(C)C)CC2)C1)N1CC2(CCN(c3ncnnc3Oc3ccc(F)cc3-c3ncncc3C3CC3)C2)C1 (single isomer, unassigned) [Compound 100]	9810 nM
0.1 nM	76 nM	CC(C)[C@@H]([C@H]1C[C@H](N2CC3(COC3)C2)C1)N1CC2(CCN(c3ncnnc3Oc3ccc(F)cc3-c3cnncc3C3CC3)C2)C1 (single isomer, unassigned) [Compound 107]	> 15000 nM
0.2 nM	5 nM	CC(=O)N[C@H]1C[C@@H]([C@@H](C(C)C)N2CC3(CCN(c4ncnnc4Oc4ccc(F)cc4-c4cnccc4C4CC4)C3)C2)C1 (single isomer, unassigned) [Compound 312]	1270 nM
0.2 nM	430 nM	CC(C)[C@@H]([C@H]1C[C@H](N2CC[C@@](C)(O)C2)C1)N1CC2(CCN(c3ncnnc3Oc3ccc(F)cc3-c3cnncc3C3CC3)C2)C1 (single isomer, unassigned) [Compound 115]	> 15000 nM
0.1 nM	5 nM	CC(=O)N1CC2(C1)CN([C@H]1C[C@@H]([C@@H](C(C)C)N3CC4(CCN(c5ncnnc5Oc5ccc(F)cc5-c5cncnc5C5CC5)C4)C3)C1)C2 (single isomer, unassigned) [Compound 170]	8680 nM
0.1 nM	10 nM	CC(C)[C@@H]([C@H]1C[C@@H](N2CCC3(CC2)COC3)C1)N1CC2(CCN(c3ncnnc3Oc3ccc(F)cc3-c3nnccc3C3CC3)C2)C1 (single isomer, unassigned) [Compound 253]	1620 nM
0.2 nM	12 nM	CC(C)[C@H]([C@H]1C[C@@H](N2CC[C@H](O)C23CC3)C1)N1CC2(CCN(c3ncnnc3Oc3ccc(F)cc3-c3cncnc3C3CC3)C2)C1 (single isomer, unassigned) [Compound 41]	> 15000 nM
0.1 nM	8 nM	CC(C)[C@@H]([C@H]1C[C@@H](N2CC[C@@](C)(O)C2)C1)N1CC2(CCN(c3ncnnc3Oc3ccc(F)cc3-c3cnncc3C3CC3)C2)C1 (single isomer, unassigned) [Compound 114]	14200 nM
0.1 nM	45 nM	CC(C)[C@H](C1CCN(C[C@H]2C[C@@H](O)C2)CC1)N1CC2(CCN(c3ncnnc3Oc3ccc(F)cc3-c3cncnc3C3CC3)C2)C1 (single isomer, unassigned) [Compound 357]	9790 nM
0.2 nM	6 nM	COCCN(C)[C@H]1C[C@@H]([C@@H](C(C)C)N2CC3(CCN(c4ncnnc4Oc4ccc(F)cc4-c4cncnc4C4CC4)C3)C2)C1 (single isomer, unassigned) [Compound 38]	> 15000 nM
0.2 nM	34 nM	COCC(=O)N[C@H]1C[C@@H]([C@@H](C(C)C)N2CC3(CCN(c4ncnnc4Oc4ccc(F)cc4-c4cncnc4C4CC4)C3)C2)C1 (single isomer, unassigned) [Compound 299]	8350 nM
5.4 nM	1910 nM	CC(C)C([C@H]1C[C@@H](N2CCS(=O)(=O)CC2)C1)N1CC2(CCN(c3ncnnc3Oc3ccc(F)cc3-c3cncnc3C3CC3)C2)C1 (stereo partly drawn) [Compound 123]	> 15000 nM
0.6 nM	180 nM	Fc1ccc(Oc2nncnc2N2CCC3(C2)CN([C@@H](C2CCN(CC4COC4)CC2)C24CC(C2)C4)C3)c(-c2cncnc2C2CC2)c1 (single isomer, unassigned) [Compound 336]	7650 nM
43.2 nM	> 940 nM	CC(=O)N1CCN([C@H]2C[C@@H]([C@@H](C(C)C)N3CC4(CCN(c5ncnnc5Oc5ccc(F)cc5-c5cnncc5C5CC5)C4)C3)C2)CC1 (single isomer, unassigned) [Compound 80]	> 15000 nM
13.6 nM	> 940 nM	CC(=O)N[C@H]1C[C@@H](C(C(C)C)N2CC3(CCN(c4ncnnc4Oc4ccc(F)cc4-c4c[nH]c(=O)nc4C4CC4)C3)C2)C1 (stereo partly drawn) [Compound 196]	> 15000 nM
0.1 nM	23 nM	CC(C)[C@H](C1CCN(C[C@H]2C[C@H](O)C2)CC1)N1CC2(CCN(c3ncnnc3Oc3ccc(F)cc3-c3cncnc3C3CC3)C2)C1 (single isomer, unassigned) [Compound 358]	2210 nM
0.2 nM	33 nM	CC(C)[C@H]([C@H]1C[C@@H](NC(=O)C2(F)CC2)C1)N1CC2(CCN(c3ncnnc3Oc3ccc(F)cc3-c3cncnc3C3CC3)C2)C1 (single isomer, unassigned) [Compound 301]	2500 nM
0.2 nM	22 nM	CC(C)[C@H]([C@H]1C[C@@H](NC(=O)C2CC2)C1)N1CC2(CCN(c3ncnnc3Oc3ccc(F)cc3-c3n[nH]c(=O)cc3C3CC3)C2)C1 (single isomer, unassigned) [Compound 309]	7390 nM
